Among the test systems are Acinetobacter baumannii; Escherichia coli; Bacillus cereus.
Common to all, as to assay: ≥ marks a high value that may be exact or a test limit, other limits are often not marked, values filed in µg/mL are converted to µM
In test [1] the test system is Enterococcus faecalis ATCC 29212.
In test [2] the test system is Pseudomonas aeruginosa ATCC 27853.
Test [3] deals with Escherichia coli ATCC 25922.
Test [4] deals with Staphylococcus aureus ATCC 29213.
The subject of test [5] is Candida albicans ATCC 10231.
In test [6] the test system is Bacillus subtilis ATCC 23857.
Test [7] has as its system Acinetobacter baumannii ATCC 19606.
Test [8] has as its system Staphylococcus aureus ATCC 25923.
Test [9] has as its system Klebsiella pneumoniae ATCC 700603.
The test system of test [10] is Staphylococcus epidermidis ATCC 12228.
Test [11] concerns Pseudomonas aeruginosa PAO1.
Test [12] deals with Klebsiella pneumoniae ATCC 13883.
Test [13] has as its system Staphylococcus aureus USA 300.
For test [14], the system named is Pseudomonas aeruginosa ATCC 9027.
Test [15] relates to Staphylococcus aureus ATCC 33591.

Values after ≈ are worked out from the molar mass of the structure shown.

On to `CC(C)C[C@H](NC(=O)[C@H](CC(C)C)NC(=O)[C@H](CCCN=C(N)N)NC(=O)[C@H](CCCCN)NC(=O)[C@H](CCCN=C(N)N)NC(=O)[C@H](CC(C)C)NC(=O)[C@H](CCCCN)NC(=O)[C@H](CCCN=C(N)N)NC(=O)[C@H](CC(C)C)NC(=O)[C@@H](N)CS)C(=O)N[C@@H](CS)C(=O)O` [CLRKLRKRLLC], for which the MIC in [1] was greater than 22.8 µM; in test [2], greater than 22.8 µM; against Acinetobacter baumannii it was 22.8 µM (≈ 32 µg/mL); in test [3] it was 17.1 µM (≈ 24 µg/mL); in test [4] it was greater than 22.8 µM.
`NC(=O)[C@H](CCCN=C(N)N)NC(=O)[C@H](CCCN=C(N)N)NC(=O)[C@H](Cc1ccccc1)NC(=O)[C@H](Cc1ccccc1)NC(=O)[C@H](CCCN=C(N)N)NC(=O)[C@H](CCCN=C(N)N)NC(=O)[C@H](Cc1ccccc1)NC(=O)[C@@H](N)Cc1ccccc1` [FFRRFFRR]: the MIC is greater than 406 µM in test [5] and no less than 102 µM in [6].
As to `C[C@H](NC(=O)[C@H](C)NC(=O)[C@@H](NC(=O)[C@H](CCCCN)NC(=O)[C@H](C)NC(=O)[C@H](CCCN=C(N)N)NC(=O)[C@H](CCCCN)NC(=O)[C@H](C)NC(=O)[C@H](C)NC(=O)CN)[C@@H](C)O)C(N)=O` [GAAKRAKTAA], the minimal inhibitory concentration (MIC) in test [1], in test [7], in [8], in test [2], in test [9] and in [3] was greater than 512 µM each time. Also, the MIC in [10] was greater than 512 µM; in test [6], no less than 512 µM.
In the case of `CC(C)C[C@H](NC(=O)[C@H](CC(C)C)NC(=O)[C@H](CCCCN)NC(=O)[C@H](CC(C)C)NC(=O)CNC(=O)[C@H](CC(C)C)NC(=O)[C@H](CO)NC(=O)[C@H](CC(C)C)NC(=O)[C@H](CC(C)C)NC(=O)[C@H](CO)NC(=O)[C@H](CC(C)C)NC(=O)[C@H](CC(C)C)NC(=O)CN)C(N)=O` [GLLSLLSLGLKLL], the MIC is greater than 25 µM in test [11], 25 µM (≈ 33.5 µg/mL) in test [12], greater than 25 µM in test [3] and 0.8 µM (≈ 1.07 µg/mL) in test [13].
Consider `CC(C)C[C@H](NC(=O)CN)C(=O)N[C@@H](CC(C)C)C(=O)N[C@@H](CO)C(=O)N[C@@H](CC(C)C)C(=O)N[C@@H](CC(C)C)C(=O)N[C@@H](CO)C(=O)N[C@@H](CC(C)C)C(=O)N[C@@H](CC(C)C)C(=O)NCC(=O)N[C@@H](CCCCN)C(=O)N[C@@H](CC(C)C)C(=O)N[C@@H](C)C(N)=O` [GLLSLLSLLGKLA], for which the MIC is greater than 25 µM in test [11], 17.7 µM (≈ 22.9 µg/mL) in test [12], 2.16 µM (≈ 2.8 µg/mL) in test [3] and 1.56 µM (≈ 2.02 µg/mL) in [13].
`CC[C@H](C)[C@H](NC(=O)[C@H](CCCN=C(N)N)NC(=O)[C@H](CCCCN)NC(=O)[C@H](Cc1ccccc1)NC(=O)[C@H](Cc1c[nH]c2ccccc12)NC(=O)CN)C(=O)N[C@@H](CCCCN)C(=O)N[C@H](C(=O)N[C@@H](Cc1ccccc1)C(=O)N[C@@H](Cc1c[nH]c2ccccc12)C(N)=O)[C@@H](C)O` [GWFKRIKTFW]: the MIC amounted to 64 µM (≈ 87.5 µg/mL) in [1]; 64 µM (≈ 87.5 µg/mL) in test [7]; 16 µM (≈ 21.9 µg/mL) in test [8]; 8 µM (≈ 10.9 µg/mL) in test [2]; 32 µM (≈ 43.8 µg/mL) in [9]; 16 µM (≈ 21.9 µg/mL) in test [3]. In addition, the MIC in [10] and in [6] was 4 µM (≈ 5.47 µg/mL) throughout.
As to `NCCCC[C@H](NC(=O)[C@H](CCCCN)NC(=O)[C@H](Cc1c[nH]c2ccccc12)NC(=O)[C@H](CCCN=C(N)N)NC(=O)[C@H](CCCCN)NC(=O)[C@H](Cc1c[nH]c2ccccc12)NC(=O)[C@H](Cc1c[nH]c2ccccc12)NC(=O)[C@@H](N)CCCCN)C(=O)N[C@@H](Cc1c[nH]c2ccccc12)C(=O)N[C@@H](Cc1c[nH]c2ccccc12)C(N)=O` [KWWKRWKKWW], the MIC in [1] amounted to 16 µM (≈ 25.9 µg/mL); in [7], 8 µM (≈ 12.9 µg/mL); in test [8] it was 8 µM (≈ 12.9 µg/mL); in test [2], 8 µM (≈ 12.9 µg/mL); in [9], 16 µM (≈ 25.9 µg/mL); in [3], 16 µM (≈ 25.9 µg/mL). The MIC in [10] came out at 8 µM (≈ 12.9 µg/mL); in [6], 4 µM (≈ 6.47 µg/mL).
As to `CC(C)C[C@H](NC(=O)[C@H](C)NC(=O)[C@H](CCCCN)NC(=O)[C@H](CC(C)C)NC(=O)[C@H](CC(N)=O)NC(=O)[C@@H](N)CC(C)C)C(=O)N[C@@H](CC(C)C)C(=O)N[C@@H](C)C(=O)N[C@H](C(=O)N[C@@H](C)C(=O)N[C@@H](CCCCN)C(N)=O)C(C)C` [LNLKALLAVAK], the MIC in test [14] is greater than 128 µM; in test [8], greater than 128 µM; in test [9], greater than 128 µM; in test [3] it was greater than 128 µM; in [6] it was no less than 128 µM.
As for `CC[C@H](C)[C@H](NC(=O)[C@@H](NC(=O)[C@H](C)NC(=O)[C@@H]1CCCN1C(=O)[C@H](Cc1ccccc1)NC(=O)[C@@H](NC(=O)[C@H](CCCCN)NC(=O)[C@H](CO)NC(=O)[C@H](C)NC(=O)[C@@H](NC(=O)[C@H](CCCN=C(N)N)NC(=O)CNC(=O)[C@@H](NC(=O)[C@@H](NC(=O)[C@@H]1CCCN1)C(C)C)C(C)C)C(C)C)C(C)C)C(C)C)C(=O)NCC(=O)N[C@@H](CC(C)C)C(=O)N[C@H](C(=O)N[C@@H](CCCCN)C(=O)N[C@@H](CCCCN)C(=O)O)C(C)C` [PVVGRVASKVFPAVIGLVKK], the values for the MIC with Escherichia coli and in the test with Bacillus cereus were greater than 124 µM and no less than 124 µM, respectively.
In the case of `C[C@@H](O)[C@H](NC(=O)[C@H](CCCN=C(N)N)NC(=O)[C@H](CCCN=C(N)N)NC(=O)[C@H](CCCN=C(N)N)NC(=O)[C@@H]1CCCN1C(=O)[C@@H](N)CO)C(=O)N1CCC[C@H]1C(=O)N[C@@H](CO)C(=O)N1CCC[C@H]1C(=O)N[C@@H](CCCN=C(N)N)C(=O)N[C@@H](CCCN=C(N)N)C(=O)N[C@@H](CCCN=C(N)N)C(=O)N[C@@H](CCCN=C(N)N)C(=O)N[C@@H](CO)C(=O)N[C@@H](CCC(N)=O)C(=O)N[C@@H](CO)C(=O)N1CCC[C@H]1C(=O)N[C@@H](CCCN=C(N)N)C(=O)N[C@@H](CCCN=C(N)N)C(=O)N[C@@H](CCCN=C(N)N)C(N)=O` [SPRRRTPSPRRRRSQSPRRR], the MIC is greater than 100 µM in [8], 100 µM (≈ 254 µg/mL) in test [2], 25 µM (≈ 63.6 µg/mL) in test [3] and no less than 100 µM in test [15].
Take `CC[C@H](C)[C@H](NC(=O)[C@H](Cc1ccc(O)cc1)NC(=O)[C@@H](NC(=O)[C@@H](NC(=O)[C@H](C)NC(=O)[C@@H]1CCCN1C(=O)[C@@H](NC(=O)[C@H](CO)NC(=O)[C@H](CS)NC(=O)[C@H](CCCCN)NC(=O)[C@@H](NC(=O)[C@H](CCCCN)NC(=O)[C@@H](N)C(C)C)[C@@H](C)O)C(C)C)C(C)C)C(C)C)C(=O)N[C@@H](CC(C)C)C(=O)N[C@H](C(=O)N[C@@H](CCCCN)C(=O)N[C@H](C(=O)N[C@@H](Cc1ccccc1)C(=O)N[C@@H](CCCCN)C(=O)N[C@@H](CO)C(=O)O)[C@@H](C)O)C(C)C` [VKTKCSVPAVVYILVKTFKS]: the MIC in the test with Escherichia coli is greater than 116 µM; against Bacillus cereus, no less than 116 µM.
